Measurements published in the NIST ThermoML archive (doi:10.1007/s10765-005-8590-7).
Numbers after ± are expanded uncertainties.

Columns and labels:
[1] = Fluid (supercritical or subcritical phases), Constant-volume piezometry
[2] = xn = mol fraction of the nth substance listed; settings: Fluid (supercritical or subcritical phases), Constant-volume piezometry, x2 = 0

Question: Which results are given for `O` [water]?
Answer: mass density ([1]; 270.15 K, 4074.2 kPa): 1001.55 ± 0.22 kg/m3; mass density ([1]; 271.17 K, 3818.6 kPa): 1001.52 ± 0.22 kg/m3; mass density ([1]; 272.04 K, 5219 kPa): 1002.3 ± 0.22 kg/m3; mass density ([1]; 272.13 K, 3596.6 kPa): 1001.49 ± 0.22 kg/m3; mass density ([1]; 273.1 K, 3402.1 kPa): 1001.46 ± 0.21 kg/m3; mass density ([1]; 273.15 K, 5009.6 kPa): 1002.26 ± 0.22 kg/m3; mass density ([1]; 274.12 K, 13437 kPa): 1006.52 ± 0.25 kg/m3; mass density ([1]; 274.15 K, 3220.1 kPa): 1001.42 ± 0.21 kg/m3; mass density ([1]; 274.15 K, 4843.5 kPa): 1002.23 ± 0.22 kg/m3; mass density ([1]; 275.15 K, 4716.5 kPa): 1002.19 ± 0.22 kg/m3; mass density ([1]; 275.16 K, 3074.5 kPa): 1001.39 ± 0.21 kg/m3; mass density ([1]; 275.18 K, 13355 kPa): 1006.48 ± 0.25 kg/m3; mass density ([1]; 276.12 K, 4614.4 kPa): 1002.16 ± 0.22 kg/m3; mass density ([1]; 276.16 K, 13306 kPa): 1006.44 ± 0.25 kg/m3; mass density ([1]; 276.17 K, 2960.4 kPa): 1001.35 ± 0.21 kg/m3; mass density ([1]; 276.18 K, 13305 kPa): 1006.44 ± 0.25 kg/m3; mass density ([1]; 277.15 K, 2875.8 kPa): 1001.32 ± 0.21 kg/m3; mass density ([1]; 277.15 K, 4535.3 kPa): 1002.12 ± 0.22 kg/m3; mass density ([1]; 277.16 K, 13282 kPa): 1006.4 ± 0.25 kg/m3; mass density ([1]; 278.13 K, 4490.8 kPa): 1002.08 ± 0.22 kg/m3; mass density ([1]; 278.16 K, 2819.8 kPa): 1001.27 ± 0.21 kg/m3; mass density ([1]; 278.16 K, 13288 kPa): 1006.35 ± 0.25 kg/m3; mass density ([1]; 279.1 K, 4468.4 kPa): 1002.03 ± 0.22 kg/m3; mass density ([1]; 279.16 K, 2790.3 kPa): 1001.23 ± 0.21 kg/m3; mass density ([1]; 279.17 K, 13328 kPa): 1006.3 ± 0.25 kg/m3; mass density ([1]; 280.1 K, 4469.1 kPa): 1001.99 ± 0.22 kg/m3; mass density ([1]; 280.17 K, 13374 kPa): 1006.26 ± 0.25 kg/m3; mass density ([1]; 281.08 K, 2807.6 kPa): 1001.14 ± 0.22 kg/m3; mass density ([1]; 281.14 K, 4509 kPa): 1001.94 ± 0.22 kg/m3; mass density ([1]; 281.17 K, 13456 kPa): 1006.21 ± 0.25 kg/m3; mass density ([1]; 282.13 K, 13562 kPa): 1006.16 ± 0.25 kg/m3; mass density ([1]; 283.15 K, 4649.5 kPa): 1001.84 ± 0.22 kg/m3; mass density ([1]; 283.18 K, 13665 kPa): 1006.11 ± 0.25 kg/m3; mass density ([1]; 285.14 K, 13994 kPa): 1006.01 ± 0.26 kg/m3; mass density ([1]; 286.05 K, 5038.7 kPa): 1001.69 ± 0.22 kg/m3; mass density ([1]; 288.15 K, 14714 kPa): 1005.84 ± 0.26 kg/m3; mass density ([1]; 289.17 K, 5677.6 kPa): 1001.51 ± 0.23 kg/m3; mass density ([1]; 292.12 K, 6505.6 kPa): 1001.33 ± 0.23 kg/m3; mass density ([1]; 296.13 K, 7938.8 kPa): 1001.06 ± 0.24 kg/m3; mass density ([1]; 300.13 K, 9714.8 kPa): 1000.78 ± 0.24 kg/m3; mass density ([1]; 305.19 K, 12424 kPa): 1000.41 ± 0.26 kg/m3; mass density ([1]; 308.16 K, 14234 kPa): 1000.19 ± 0.27 kg/m3

Question: For `O` [water] + N, which mass density ([2]; 270.15 K, 4074.2 kPa) is on record?
Answer: 1001.55 ± 0.22 kg/m3

Question: And the mass density ([2]; 271.17 K, 3818.6 kPa)?
Answer: 1001.52 ± 0.22 kg/m3

Question: And the mass density ([2]; 272.04 K, 5219 kPa)?
Answer: 1002.3 ± 0.22 kg/m3

Question: What about the mass density ([2]; 272.13 K, 3596.6 kPa) of the same compound?
Answer: 1001.49 ± 0.22 kg/m3

Question: And the mass density ([2]; 273.1 K, 3402.1 kPa)?
Answer: 1001.46 ± 0.21 kg/m3

Question: What about the mass density ([2]; 273.15 K, 5009.6 kPa) of the same compound?
Answer: 1002.26 ± 0.22 kg/m3

Question: What about the mass density ([2]; 274.12 K, 13437 kPa) of the same compound?
Answer: 1006.52 ± 0.25 kg/m3

Question: What about the mass density ([2]; 274.15 K, 3220.1 kPa) of the same compound?
Answer: 1001.42 ± 0.21 kg/m3

Question: What about the mass density ([2]; 274.15 K, 4843.5 kPa) of the same compound?
Answer: 1002.23 ± 0.22 kg/m3

Question: And the mass density ([2]; 275.15 K, 4716.5 kPa)?
Answer: 1002.19 ± 0.22 kg/m3

Question: What about the mass density ([2]; 275.16 K, 3074.5 kPa) of the same compound?
Answer: 1001.39 ± 0.21 kg/m3

Question: And the mass density ([2]; 275.18 K, 13355 kPa)?
Answer: 1006.48 ± 0.25 kg/m3

Question: And the mass density ([2]; 276.12 K, 4614.4 kPa)?
Answer: 1002.16 ± 0.22 kg/m3

Question: What about the mass density ([2]; 276.16 K, 13306 kPa) of the same compound?
Answer: 1006.44 ± 0.25 kg/m3

Question: What about the mass density ([2]; 276.17 K, 2960.4 kPa) of the same compound?
Answer: 1001.35 ± 0.21 kg/m3

Question: And the mass density ([2]; 276.18 K, 13305 kPa)?
Answer: 1006.44 ± 0.25 kg/m3

Question: And the mass density ([2]; 277.15 K, 2875.8 kPa)?
Answer: 1001.32 ± 0.21 kg/m3

Question: And the mass density ([2]; 277.15 K, 4535.3 kPa)?
Answer: 1002.12 ± 0.22 kg/m3

Question: What about the mass density ([2]; 277.16 K, 13282 kPa) of the same compound?
Answer: 1006.4 ± 0.25 kg/m3

Question: And the mass density ([2]; 278.13 K, 4490.8 kPa)?
Answer: 1002.08 ± 0.22 kg/m3

Question: And the mass density ([2]; 278.16 K, 2819.8 kPa)?
Answer: 1001.27 ± 0.21 kg/m3

Question: What about the mass density ([2]; 278.16 K, 13288 kPa) of the same compound?
Answer: 1006.35 ± 0.25 kg/m3

Question: What about the mass density ([2]; 279.1 K, 4468.4 kPa) of the same compound?
Answer: 1002.03 ± 0.22 kg/m3

Question: And the mass density ([2]; 279.16 K, 2790.3 kPa)?
Answer: 1001.23 ± 0.21 kg/m3

Question: What about the mass density ([2]; 279.17 K, 13328 kPa) of the same compound?
Answer: 1006.3 ± 0.25 kg/m3

Question: And the mass density ([2]; 280.1 K, 4469.1 kPa)?
Answer: 1001.99 ± 0.22 kg/m3

Question: And the mass density ([2]; 280.17 K, 13374 kPa)?
Answer: 1006.26 ± 0.25 kg/m3

Question: And the mass density ([2]; 281.08 K, 2807.6 kPa)?
Answer: 1001.14 ± 0.22 kg/m3

Question: What about the mass density ([2]; 281.14 K, 4509 kPa) of the same compound?
Answer: 1001.94 ± 0.22 kg/m3

Question: What about the mass density ([2]; 281.17 K, 13456 kPa) of the same compound?
Answer: 1006.21 ± 0.25 kg/m3

Question: And the mass density ([2]; 282.13 K, 13562 kPa)?
Answer: 1006.16 ± 0.25 kg/m3

Question: And the mass density ([2]; 283.15 K, 4649.5 kPa)?
Answer: 1001.84 ± 0.22 kg/m3

Question: And the mass density ([2]; 283.18 K, 13665 kPa)?
Answer: 1006.11 ± 0.25 kg/m3

Question: What about the mass density ([2]; 285.14 K, 13994 kPa) of the same compound?
Answer: 1006.01 ± 0.26 kg/m3

Question: And the mass density ([2]; 286.05 K, 5038.7 kPa)?
Answer: 1001.69 ± 0.22 kg/m3

Question: What about the mass density ([2]; 288.15 K, 14714 kPa) of the same compound?
Answer: 1005.84 ± 0.26 kg/m3

Question: And the mass density ([2]; 289.17 K, 5677.6 kPa)?
Answer: 1001.51 ± 0.23 kg/m3

Question: What about the mass density ([2]; 292.12 K, 6505.6 kPa) of the same compound?
Answer: 1001.33 ± 0.23 kg/m3

Question: What about the mass density ([2]; 296.13 K, 7938.8 kPa) of the same compound?
Answer: 1001.06 ± 0.24 kg/m3

Question: And the mass density ([2]; 300.13 K, 9714.8 kPa)?
Answer: 1000.78 ± 0.24 kg/m3

Question: And the mass density ([2]; 305.19 K, 12424 kPa)?
Answer: 1000.41 ± 0.26 kg/m3

Question: And the mass density ([2]; 308.16 K, 14234 kPa)?
Answer: 1000.19 ± 0.27 kg/m3
